Peptide text beside a SMILES is read from it.
Legend:
[1] = tested on: Rat Cornea Neovascularization; assay: Rat cornea neovascularization (bFGF/Hydron pellet implantation); format: in vivo, Sprague Dawley rats; conditions: day seven post-implantation
Method: […] Louis, MO) were pipetted into the tip of a sterile Teflon rod. After drying for 1-2 hours, the pellets were stored at 4 °C.
A small (about 2 mm) radial incision at 1 mm from the center of the cornea was performed in anesthetized Sprague Dawley rats. With a curved iris spatula, an intrastromal pocket was made to a distance of 1 mm from the limbus-the circular blood vessels that surround the cornea. A single pellet was implanted. Antibiotic ointment (neosporin) was applied post surgery to the operated eye to prevent infection and to decrease inflammation.
At day seven post-implantation, neovascularization was measured through a slitlamp biomicroscopy (Nikon NS-1), connected to an image analysis system (Leica Qwin). The response was calculated by colorimetrically detecting the area of new blood vessels, and calculating the new vessel surface area in µm^2.

[2] = tested on: Human Microvascular Endothelial Cells; assay: Human microvascular endothelial cell (HMVEC) migration assay, modified Boyden chamber; format: cell-based; conditions: activators 15 ng/ml bFGF/VEGF, 4 hours at 37 °C
Method: The human microvascular endothelial (HMVEC) migration assay was run according to the procedure of S. S. Tolsma, O. V. Volpert, D. J. Good, W. F. Frazier, P. J. Polverini and N. Bouck, J. Cell Biol. 122, 497-511 (1993).
The HMVEC migration assay was carried out using Human Microvascular Endothelial Cells-Dermal (single donor) and Human Microvascular Endothelial Cells, (neonatal). The BCE or HMVEC cells were starved overnight in DME containing 0.1 % bovine serum albumin (BSA). Cells were then harvested with trypsin and resuspended in DME with 0.1 % BSA at a concentration of 1.5 X 10^6 cells per ml. Cells were added to the bottom of a 48 well modified Boyden chamber (Nucleopore Corporation, Cabin John, MD). The chamber was assembled and inverted, and cells were allowed to attach for 2 hours at 37 °C to polycarbonate chemotaxis membranes (5 µm pore size) that had been soaked in 0.1% gelatin overnight and dried. The chamber was then reinverted, and test substances (total volume of 50 µl), including activators, 15 ng/ml bFGF/VEGF, were added to the wells of the upper chamber. The apparatus was incubated for 4 hours at 37 °C. Membranes were recovered, fixed and stained (Diff Quick, Fisher Scientific) and the number of cells that had migrated to the upper chamber per […] high power fields counted. Background migration to DME + 0.1 BSA was subtracted and the data reported as the number of cells migrated per 10 high power fields (400X) or, when results from multiple experiments were combined, as the percent inhibition of migration compared to a positive control.

## CCC[C@H](NC(=O)[C@@H](NC(=O)[C@H](NC(=O)[C@@H](NC(=O)CNC(=O)CN(C)C(C)=O)C(C)C)[C@H](C)CC)[C@@H](C)O)C(=O)N[C@H](C(=O)N[C@@H](CCCNC(=N)N)C(=O)N1CCC[C@H]1C(=O)NCC)[C@@H](C)CC [Example 1, N-Ac-Sar-Gly-Val-D-Ile-Thr-Nva-Ile-Arg-ProNHCH2CH3] (HELM PEPTIDE1{[ac].[Sar].G.V.[dI].T.[Nva].I.R.P.[CCN[*:1]]}$$$$V2.0)
[1]; dose 5 µM in pellet with 100 ng bFGF, 5 corneas
  % Inhibition: 74.8%
[1]; dose 6 µM in pellet with 100 ng bFGF, 4 corneas
  % Inhibition: 71.5%
[1]; dose 10 µM in pellet with 100 ng bFGF, 6 corneas
  % Inhibition: 92.6%

## CCC[C@H](NC(=O)[C@@H](NC(=O)[C@H](NC(=O)[C@@H](NC(=O)CNC(=O)CN(C)C(C)=O)C(C)C)[C@H](C)CC)[C@@H](C)O)C(=O)N[C@H](C(=O)N[C@@H](CCCNC(=N)N)C(=O)N1CCC[C@H]1C(=O)NC)[C@@H](C)CC [Example 3, N-Ac-Sar-Gly-Val-D-Ile-Thr-Nva-Ile-Arg-ProNHCH3] (HELM PEPTIDE1{[ac].[Sar].G.V.[dI].T.[Nva].I.R.P.[CN[*:1]]}$$$$V2.0)
[2]
  % Inhib. @ 20 nM: 56.0%

## CCC[C@H](NC(=O)[C@@H](NC(=O)[C@H](NC(=O)[C@@H](NC(=O)CNC(=O)CN(C)C(C)=O)C(C)C)[C@H](C)CC)[C@@H](C)O)C(=O)N[C@H](C(=O)N[C@@H](CCCNC(=N)N)C(=O)N1CCC[C@H]1C(=O)NCCC1CCCCC1)[C@@H](C)CC [Example 12, N-Ac-Sar-Gly-Val-D-Ile-Thr-Nva-Ile-Arg-ProNHCH2CH2-cyclohexyl] (HELM PEPTIDE1{[ac].[Sar].G.V.[dI].T.[Nva].I.R.P.[C1CCC(CCN[*:1])CC1]}$$$$V2.0)
[2]
  % Inhib. @ 20 nM: 55.8%

## CCCCCCCC[C@H](NC(=O)[C@@H](NC(=O)[C@H](NC(=O)[C@@H](NC(=O)CNC(=O)CN(C)C(C)=O)C(C)C)[C@H](C)CC)[C@@H](C)O)C(=O)N[C@H](C(=O)N[C@@H](CCCNC(=N)N)C(=O)N1CCC[C@H]1C(=O)NCC)[C@@H](C)CC [Example 50, N-Ac-Sar-Gly-Val-D-Ile-Thr-Octylgly-Ile-Arg-ProNHCH2CH3] (HELM PEPTIDE1{[ac].[Sar].G.V.[dI].T.[CCCCCCCC[C@H](N[*:1])C(=O)[*:2]].I.R.P.[CCN[*:1]]}$$$$V2.0)
[2]
  % Inhib. @ 20 nM: 71.6%

## CCC[C@H](NC(=O)[C@@H](NC(=O)[C@H](NC(=O)[C@@H](NC(=O)CNC(=O)CN(C)C(=O)CCCCCNC(C)=O)C(C)C)[C@H](C)CC)[C@@H](C)O)C(=O)N[C@H](C(=O)N[C@@H](CCCNC(=N)N)C(=O)N1CCC[C@H]1C(=O)NCC)[C@@H](C)CC [Example 63, N-[6-N'-Acetyl-(CH2)5C(O)]-Sar-Gly-Val-D-Ile-Thr-Nva-Ile-Arg-ProNHCH2CH3] (HELM PEPTIDE1{[ac].[O=C(CCCCCN[*:1])[*:2]].[Sar].G.V.[dI].T.[Nva].I.R.P.[CCN[*:1]]}$$$$V2.0)
[2]
  % Inhib. @ 10 nM: 82.4%

## N-Ac-Sar-Gly-Val-D-Ile-Thr-Nva-Ile-Arg-ProNHethyl-1-(R)-cyclohexyl [Example 8]
[2]
  % Inhib. @ 10 nM: 88.2%

## N-Cyclohexylacetyl-Sar-Gly-Val-D-Ile-Tlu-Nva-Ile-Arg-ProNHCH2CH3 [Example 52]
[2]
  % Inhib. @ 20 nM: 46.5%

— patent publication EP1078002B1, “PEPTIDE ANTIANGIOGENIC DRUGS” (ABBOTT LABORATORIES, priority 1998, dated 1999)
